Measured values taken from patent US20220288231A1, “METHODS AND COMPOSITIONS FOR REDUCING GENE OR NUCLEIC ACID THERAPY-RELATED IMMUNE RESPONSES” (Generation Bio Co., priority 2019, published 2022).
“Also recorded” adds a separate entry of the source. Where a name gives a salt, the structure may show the parent alone.

Assays:
[1] = tested on: IRF-inducible luciferase reporter in RAW-ISG cells; assay: IFN reporter assay in RAW-ISG cells; type: cell-based, murine; settings: for inhibitory effects on murine ISG system / induction of IRF: 0.1 μM, 1.0 μM and 10 μM, ceDNA
Description: Finally, IFN reporter assays were conducted in RAW-ISG cells. RAW-ISG cells are generated from the murine macrophage cell line by stable integration of an interferon regulatory factor (IRF)-inducible luciferase reporter construct. […] Another potent TKI compound selected for this assay was BMS-986165 which is a known antagonist of TYK2.

THP1-ISG cells = assay: THP1-ISG cell viability assay (ATP activity and LDH release); settings: 10 μM, 1.0 μM and 0.1 μM; 24 hours
[2] = In vivo tolerability and body weight with TKI and ceDNA; set-up: species or system mice
Description: The immunosuppressant selected for initial in vivo cytokine/chemokine panel assays were afatinib, brigatinib, dacomitinib, dasatinib, saracatinib, fostamatinib, cerdulatinib, ruxolitinib, and cobimetinib. […] The high and low dose concentrations immunosuppressants are as follows: afatinib (H: 200 mg/kg/day; L: 25 mg/kg/day), brigatinib (H: 50 mg/kg/day; L: 10 mg/kg/day), dacomitinib (H: 30 mg/kg/day; L: 10 mg/kg/day), dasatinib (H: 30 mg/kg/day; L: 10 mg/kg/day), saracatinib (H: 50 mg/kg/day; L: 10 mg/kg/day), fostamatinib (H: 500 mg/kg/day; L: 100 mg/kg/day), cerdulatinib (H: 30 mg/kg/day; L: 5 mg/kg/day), ruxolitinib (H: 300 mg/kg/day; L: 60 mg/kg/day) and cobimetinib (H: 10 mg/kg/day; L: 3 mg/kg/day). Formulations were mixed by pipetting prior to administration to distribute particulates of oral gavage suspension. TKI or vehicle for Groups 3-24 were dosed on Days -2, -1, 0 and 1 by oral gavage at 10 mL/kg. TKI for Group 25 were dosed on Days -2, -1, 0 and 1 by oral gavage at 20 mL/kg. TKI for Group 26 was dosed on Days -2, -1, 0 and 1 by intraperitoneal (IP) administration at 20 mL/kg. […] Otherwise, TKIs were administered at approximately the same time each day ([…] dosed at 0.2 mg/kg on Day 0 for all experimental groups by intravenous administration via lateral tail vein. […] Polycytidylic acid potassium salt (PolyC) and […] […] Body weights for all animal were recorded.

[3] = tested on: serum proinflammatory cytokines and chemokines in response to ceDNA; assay: In vivo cytokine/chemokine panel after ceDNA (Construct A) dosing; set-up: species or system mice; settings: for serum IP-10 level: repeat experiment; for cytokines expression after ceDNA dosing: LNP: Construct A at 0.2 mg/Kg
Description: The immunosuppressant selected for initial in vivo cytokine/chemokine panel assays were afatinib, brigatinib, dacomitinib, dasatinib, saracatinib, fostamatinib, cerdulatinib, ruxolitinib, and cobimetinib. […] The high and low dose concentrations immunosuppressants are as follows: afatinib (H: 200 mg/kg/day; L: 25 mg/kg/day), brigatinib (H: 50 mg/kg/day; L: 10 mg/kg/day), dacomitinib (H: 30 mg/kg/day; L: 10 mg/kg/day), dasatinib (H: 30 mg/kg/day; L: 10 mg/kg/day), saracatinib (H: 50 mg/kg/day; L: 10 mg/kg/day), fostamatinib (H: 500 mg/kg/day; L: 100 mg/kg/day), cerdulatinib (H: 30 mg/kg/day; L: 5 mg/kg/day), ruxolitinib (H: 300 mg/kg/day; L: 60 mg/kg/day) and cobimetinib (H: 10 mg/kg/day; L: 3 mg/kg/day). Formulations were mixed by pipetting prior to administration to distribute particulates of oral gavage suspension. TKI or vehicle for Groups 3-24 were dosed on Days -2, -1, 0 and 1 by oral gavage at 10 mL/kg. TKI for Group 25 were dosed on Days -2, -1, 0 and 1 by oral gavage at 20 mL/kg. TKI for Group 26 was dosed on Days -2, -1, 0 and 1 by intraperitoneal (IP) administration at 20 mL/kg. […] Otherwise, TKIs were administered at approximately the same time each day ([…] dosed at 0.2 mg/kg on Day 0 for all experimental groups by intravenous administration via lateral tail vein. Animals were monitored continuously while under anesthesia, during recovery and until mobile. […] Polycytidylic acid potassium salt (PolyC) and […] (Construct A) were used as controls. […] Body weights for all animal were recorded.

[4] = tested on: luciferase expression of ceDNA (Construct A); assay: In-life imaging (IVIS) of ceDNA luciferase expression; type: in vivo, mice; settings: day 6; compared among TKI groups
Description: Expression levels of ceDNA as detected by luciferase (IVIS for luciferase) was measured at day 6, 14, 21, 28, and 35 in all groups (FIG. 8). Polycytidylic acid potassium salt (PolyC) and […] ceDNA (Construct A) were used as controls. Both polyC and Construct A were formulated in LNP and used as controls for in groups in which no ceDNA was dosed to evaluate the effect of LNPs. Body weights for all animal were recorded.

[5] = tested on: immune response to ceDNA (Construct A: hAAT-Luciferase); assay: ceDNA dose escalation study with TKI; type: in vivo; settings: 2 mg/kg ceDNA formulated in LNP; ruxolitinib 300 mg/kg
Description: An in vivo study with dose escalation of ceDNA was conducted to evaluate the effect of ceDNA at a high dose in the presence of the TKI (ruxolitinib at a high dose of 300 mg/kg and fostamatinib at a high dose of 500 mg/kg). In this study, four experimental groups were dosed with increasing doses of 0.2 mg/kg, 0.5 mg/kg, 1 mg/kg, or 2 mg/kg of ceDNA (Construct A: hAAT-Luciferase) formulated in LNPs.

immune response to ceDNA = type: in vivo, mice; settings: −0.5 h and 5 h regimen compared to −48 hr, −24 h, −1.5 h and 24 h regimen; 300 mg/kg
Text: FIG. 14 depicts two different dosing time arrangements of TKI treatment. […]. […]

[6] = 0.2 mg/kg ceDNA, blood 6 hours post dose
[7] = high dose of TKI with Construct A:LNP vehicle

SMILES: [2H]C([2H])([2H])NC(=O)c1nnc(NC(=O)C2CC2)cc1Nc1cccc(-c2ncn(C)n2)c1OC [BMS-986165, BMS986165 Tyk2-IN-4]
- inhibitory effects, ranking among more than 30 compounds tested [1]: most significant inhibitory effects
- inhibitory effects on murine ISG system / induction of IRF [1]: significant inhibitory effects

SMILES: Cl.Cn1cc(-c2nc(N[C@@H]3CCCC[C@@H]3N)c(F)c3c2C(=O)NC3)cn1 [TAK-659]
- toxicity in vitro (ATP activity) (THP1-ISG cells): mostly non-toxic

SMILES: CN(C)C/C=C/C(=O)Nc1cc2c(Nc3ccc(F)c(Cl)c3)ncnc2cc1O[C@H]1CCOC1 [afatinib, Afatinib/ Afatinib Dimaleate]
- body loss ([2]; with ceDNA, particularly at a high dose): 7-8%

SMILES: c1cn2cc(-c3ccc4cn[nH]c4c3)nc(Nc3ccc(N4CCOCC4)cc3)c2n1 [entoplestinib, Entosplestinib]
- toxicity in vitro (ATP activity) (THP1-ISG cells): mostly non-toxic

SMILES: COc1cc(Nc2ncc(F)c(Nc3ccc4c(n3)N(COP(=O)(O)O)C(=O)C(C)(C)O4)n2)cc(OC)c1OC [fostamatinib, Fostamatinib/ Fostamatinib disodium]
- inhibitory effects, ranking among more than 30 compounds tested [1]: most significant inhibitory effects
- inhibitory effects on murine ISG system / induction of IRF [1]: significant inhibitory effects
- suppressing cytokines and chemokine levels ([3]; 0.2 mg/kg ceDNA): stood out
- type I and type II IFNs responses ([3]; 0.2 mg/kg ceDNA): effectively attenuated
- serum interferon-α (IFN-α) level [3, 6]: successfully exerted immunosuppressive effects
- serum interferon-γ (IFN-γ) level [3, 6]: successfully exerted immunosuppressive effects
- serum interleukin-6 (IL-6) level [3, 6]: successfully exerted immunosuppressive effects
- serum interleukin-18 (IL-18) level [3, 6]: successfully exerted immunosuppressive effects
- serum tumor necrosis factor-α (TNF-α) level [3, 6]: successfully exerted immunosuppressive effects
- serum IP-10 level ([3]; 0.2 mg/kg ceDNA): successfully exerted immunosuppressive effects
- cytokines expression after ceDNA dosing [3]: drastically reduce

SMILES: Cc1ccc(NC(=O)c2ccc(CN3CCN(C)CC3)cc2)cc1Nc1nccc(-c2cccnc2)n1 [imatinib, Imatinib/ Imatinib mesylate]
- toxicity in vitro (ATP activity) (THP1-ISG cells): mostly non-toxic

SMILES: N#CC[C@H](C1CCCC1)n1cc(-c2ncnc3[nH]ccc23)cn1 [ruxolitinib, Ruxolitinib/ Ruxolitinib phosphate/ S-ruxolitinib]
- ceDNA transgene expression levels [4]: highest level
- tolerability [5]: well tolerated
- immunosuppression (immune response to ceDNA): improved immunosuppression
- inhibitory effects, ranking among more than 30 compounds tested [1]: most significant inhibitory effects
- inhibitory effects on murine ISG system / induction of IRF [1]: significant inhibitory effects
- body weight change ([2]; TKI with 0.2 mg/kg ceDNA): a certain level of weight gains
- serum MCP-1 level ([3]; 0.2 mg/kg ceDNA): significant reduction
- serum MIP-1α (CCL3) level ([3]; 0.2 mg/kg ceDNA): significant reduction
- serum MIP-1β (CCL4) level ([3]; 0.2 mg/kg ceDNA): significant reduction
- serum Rantes (CCL5) level ([3]; 0.2 mg/kg ceDNA): significant reduction
- suppressing cytokines and chemokine levels ([3]; 0.2 mg/kg ceDNA): stood out
- type I and type II IFNs responses ([3]; 0.2 mg/kg ceDNA): effectively attenuated
- serum interferon-α (IFN-α) level [3, 6]: significant reductions; also recorded: successfully exerted immunosuppressive effects
- serum interferon-γ (IFN-γ) level [3, 6]: significant reductions; also recorded: successfully exerted immunosuppressive effects
- serum interleukin-6 (IL-6) level [3, 6]: significant reductions; also recorded: successfully exerted immunosuppressive effects
- serum interleukin-18 (IL-18) level [3, 6]: significant reductions; also recorded: successfully exerted immunosuppressive effects
- serum level [3, 6]: significant reductions
- serum tumor necrosis factor-α (TNF-α) level [3, 6]: significant reductions; also recorded: successfully exerted immunosuppressive effects
- serum IP-10 level ([3]; 0.2 mg/kg ceDNA): successfully exerted immunosuppressive effects
- cytokines expression after ceDNA dosing [3]: drastically reduce
- serum IFN-α level [3, 7]: no detectable
- serum IFN-γ level [3, 7]: no detectable
- serum IL-6 level [3, 7]: no detectable

SMILES: CNC(=O)c1cc(Oc2ccc(NC(=O)Nc3ccc(Cl)c(C(F)(F)F)c3)cc2)ccn1 [sorafinib, Sorafenib]
- toxicity in vitro (ATP activity) (THP1-ISG cells): mostly non-toxic

SMILES: CCN(CC)CCNC(=O)c1c(C)[nH]c(/C=C2\C(=O)Nc3ccc(F)cc32)c1C [sunitinib, Sunitinib]
- toxicity in vitro (ATP activity) (THP1-ISG cells): mostly non-toxic
